{
  "source": "ChEMBL document CHEMBL1201862",
  "about": "“PubChem BioAssay data set” (2004)",
  "assay_in_all_cases": "NCI anticancer screen, dose series, 48 h",
  "key": {"SR": {"tested_on": "SR"}, "NCI/ADR-RES": {"tested_on": "NCI/ADR-RES"}, "MCF7": {"tested_on": "MCF7"}, "IGROV-1": {"tested_on": "IGROV-1"}, "OVCAR-4": {"tested_on": "OVCAR-4"}, "MDA-N": {"tested_on": "MDA-N"}, "COLO 205": {"tested_on": "COLO 205"}, "NCI-H522": {"tested_on": "NCI-H522"}, "UACC-62": {"tested_on": "UACC-62"}, "U-251": {"tested_on": "U-251"}, "EKVX": {"tested_on": "EKVX"}, "HCT-15": {"tested_on": "HCT-15"}, "OVCAR-5": {"tested_on": "OVCAR-5"}, "A549": {"tested_on": "A549"}, "K562": {"tested_on": "K562"}, "NCI-H460": {"tested_on": "NCI-H460"}, "PC-3": {"tested_on": "PC-3"}, "Malme-3M": {"tested_on": "Malme-3M"}, "RXF 393": {"tested_on": "RXF 393"}, "A498": {"tested_on": "A498"}},
  "note": "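Cultured in 96-well plates, cells were exposed to test compound for 48 hours across five concentrations. GI50 = concentration required for 50% inhibition of growth.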 Calls of active or inactive are those of the source. No stated cut-off is given here; in the data, active = GI50 up to about 1.1 µM and inactive = higher.",
  "data": [
    {"compound": "C/N=C(\\N)N/N=C(\\C)c1ccc2oc3ccc(/C(C)=N/N/C(N)=N/C)cc3c2c1", "values": [
      {"measurement": "GI50", "setting": "SR", "result": "1.51 µM (inactive)"},
      {"measurement": "GI50", "setting": "NCI/ADR-RES", "result": "> 39.1 µM (inactive)"},
      {"measurement": "GI50", "setting": "MCF7", "result": "1.05 µM (active)"},
      {"measurement": "GI50", "setting": "IGROV-1", "result": "2.24 µM (inactive)"},
      {"measurement": "GI50", "setting": "OVCAR-4", "result": "3.8 µM (inactive)"},
      {"measurement": "GI50", "setting": "MDA-N", "result": "3.62 µM (inactive)"},
      {"measurement": "GI50", "setting": "COLO 205", "result": "3.27 µM (inactive)"},
      {"measurement": "GI50", "setting": "NCI-H522", "result": "1.67 µM (inactive)"},
      {"measurement": "GI50", "setting": "UACC-62", "result": "2.88 µM (inactive)"},
      {"measurement": "GI50", "setting": "U-251", "result": "1.61 µM (inactive)"},
      {"measurement": "GI50", "setting": "EKVX", "result": "4.24 µM (inactive)"},
      {"measurement": "GI50", "setting": "HCT-15", "result": "> 23", "unit": "µM"},
      {"measurement": "GI50", "setting": "OVCAR-5", "result": "9.35 µM (inactive)"},
      {"measurement": "GI50", "setting": "A549", "result": "2.86 µM (inactive)"},
      {"measurement": "GI50", "setting": "K562", "result": "2.15 µM (inactive)"},
      {"measurement": "GI50", "setting": "NCI-H460", "result": "1.98 µM (inactive)"},
      {"measurement": "GI50", "setting": "PC-3", "result": "3.01 µM (inactive)"}
    ]},
    {"compound": "CC1=C(C(=O)OCCc2ccc([N+](=O)[O-])cc2)C(c2ccccc2C(F)(F)F)C(C(=O)OC(C)C)=C(C)N1", "note": "(stereo not drawn)", "values": [
      {"measurement": "GI50", "setting": "SR", "result": "3.11 µM (inactive)"},
      {"measurement": "GI50", "setting": "NCI/ADR-RES", "result": "2.75 µM (inactive)"},
      {"measurement": "GI50", "setting": "MCF7", "result": "3.36 µM (inactive)"},
      {"measurement": "GI50", "setting": "IGROV-1", "result": "4.88 µM (inactive)"},
      {"measurement": "GI50", "setting": "OVCAR-4", "result": "38 µM (inactive)"},
      {"measurement": "GI50", "setting": "MDA-N", "result": "4.33 µM (inactive)"},
      {"measurement": "GI50", "setting": "COLO 205", "result": "2.97 µM (inactive)"},
      {"measurement": "GI50", "setting": "Malme-3M", "result": "3.49 µM (inactive)"},
      {"measurement": "GI50", "setting": "NCI-H522", "result": "3.31 µM (inactive)"},
      {"measurement": "GI50", "setting": "UACC-62", "result": "3.22 µM (inactive)"},
      {"measurement": "GI50", "setting": "U-251", "result": "3.52 µM (inactive)"},
      {"measurement": "GI50", "setting": "EKVX", "result": "2.05 µM (inactive)"},
      {"measurement": "GI50", "setting": "HCT-15", "result": 3.78, "unit": "µM"},
      {"measurement": "GI50", "setting": "RXF 393", "result": "1.87 µM (inactive)"},
      {"measurement": "GI50", "setting": "OVCAR-5", "result": "16.1 µM (inactive)"},
      {"measurement": "GI50", "setting": "A549", "result": "2.81 µM (inactive)"},
      {"measurement": "GI50", "setting": "K562", "result": "2.41 µM (inactive)"},
      {"measurement": "GI50", "setting": "NCI-H460", "result": "2.47 µM (inactive)"},
      {"measurement": "GI50", "setting": "PC-3", "result": "1.98 µM (inactive)"}
    ]},
    {"compound": "O=C(/C=C/c1ccsc1)c1ccsc1", "values": [
      {"measurement": "GI50", "setting": "SR", "result": "19.5 µM (inactive)"},
      {"measurement": "GI50", "setting": "NCI/ADR-RES", "result": "> 100 µM (inactive)"},
      {"measurement": "GI50", "setting": "MCF7", "result": "13.8 µM (inactive)"},
      {"measurement": "GI50", "setting": "IGROV-1", "result": "31.3 µM (inactive)"},
      {"measurement": "GI50", "setting": "A498", "result": "37.5 µM (inactive)"},
      {"measurement": "GI50", "setting": "OVCAR-4", "result": "37.2 µM (inactive)"},
      {"measurement": "GI50", "setting": "MDA-N", "result": "23.2 µM (inactive)"},
      {"measurement": "GI50", "setting": "COLO 205", "result": "22.4 µM (inactive)"},
      {"measurement": "GI50", "setting": "Malme-3M", "result": "26.4 µM (inactive)"},
      {"measurement": "GI50", "setting": "UACC-62", "result": "32.4 µM (inactive)"},
      {"measurement": "GI50", "setting": "U-251", "result": "18.1 µM (inactive)"},
      {"measurement": "GI50", "setting": "EKVX", "result": "70.5 µM (inactive)"},
      {"measurement": "GI50", "setting": "HCT-15", "result": 19.1, "unit": "µM"},
      {"measurement": "GI50", "setting": "A549", "result": "38.2 µM (inactive)"},
      {"measurement": "GI50", "setting": "K562", "result": "> 10 µM (inactive)"},
      {"measurement": "GI50", "setting": "NCI-H460", "result": "23.7 µM (inactive)"},
      {"measurement": "GI50", "setting": "PC-3", "result": "19.8 µM (inactive)"}
    ]},
    {"compound": "Cc1nc(Cc2n[nH]c(C)n2)n[nH]1", "values": [
      {"measurement": "GI50", "setting": "SR", "result": "> 100 µM (inactive)"},
      {"measurement": "GI50", "setting": "NCI/ADR-RES", "result": "> 100 µM (inactive)"},
      {"measurement": "GI50", "setting": "MCF7", "result": "> 100 µM (inactive)"},
      {"measurement": "GI50", "setting": "IGROV-1", "result": "> 100 µM (inactive)"},
      {"measurement": "GI50", "setting": "OVCAR-4", "result": "> 100 µM (inactive)"},
      {"measurement": "GI50", "setting": "MDA-N", "result": "> 100 µM (inactive)"},
      {"measurement": "GI50", "setting": "COLO 205", "result": "> 100 µM (inactive)"},
      {"measurement": "GI50", "setting": "NCI-H522", "result": "> 100 µM (inactive)"},
      {"measurement": "GI50", "setting": "UACC-62", "result": "> 100 µM (inactive)"},
      {"measurement": "GI50", "setting": "U-251", "result": "> 100 µM (inactive)"},
      {"measurement": "GI50", "setting": "EKVX", "result": "> 100 µM (inactive)"},
      {"measurement": "GI50", "setting": "HCT-15", "result": "> 100", "unit": "µM"},
      {"measurement": "GI50", "setting": "RXF 393", "result": "> 100 µM (inactive)"},
      {"measurement": "GI50", "setting": "OVCAR-5", "result": "> 100 µM (inactive)"},
      {"measurement": "GI50", "setting": "A549", "result": "> 100 µM (inactive)"},
      {"measurement": "GI50", "setting": "K562", "result": "> 100 µM (inactive)"},
      {"measurement": "GI50", "setting": "PC-3", "result": "> 100 µM (inactive)"}
    ]},
    {"compound": "Cc1cccc(/N=N/c2c(C)nn(C(=O)CC(=O)Nc3ccc(Cl)cc3)c2C)c1", "values": [
      {"measurement": "GI50", "setting": "SR", "result": "20.8 µM (inactive)"},
      {"measurement": "GI50", "setting": "NCI/ADR-RES", "result": "> 100 µM (inactive)"},
      {"measurement": "GI50", "setting": "MCF7", "result": "> 100 µM (inactive)"},
      {"measurement": "GI50", "setting": "A498", "result": "43.8 µM (inactive)"},
      {"measurement": "GI50", "setting": "OVCAR-4", "result": "> 100 µM (inactive)"},
      {"measurement": "GI50", "setting": "MDA-N", "result": "83.8 µM (inactive)"},
      {"measurement": "GI50", "setting": "COLO 205", "result": "> 100 µM (inactive)"},
      {"measurement": "GI50", "setting": "NCI-H522", "result": "53.3 µM (inactive)"},
      {"measurement": "GI50", "setting": "UACC-62", "result": "> 100 µM (inactive)"},
      {"measurement": "GI50", "setting": "U-251", "result": "61.5 µM (inactive)"},
      {"measurement": "GI50", "setting": "EKVX", "result": "13.4 µM (inactive)"},
      {"measurement": "GI50", "setting": "HCT-15", "result": 47.8, "unit": "µM"},
      {"measurement": "GI50", "setting": "RXF 393", "result": "48.1 µM (inactive)"},
      {"measurement": "GI50", "setting": "OVCAR-5", "result": "45.6 µM (inactive)"},
      {"measurement": "GI50", "setting": "A549", "result": "> 100 µM (inactive)"},
      {"measurement": "GI50", "setting": "NCI-H460", "result": "85.3 µM (inactive)"},
      {"measurement": "GI50", "setting": "PC-3", "result": "69 µM (inactive)"}
    ]},
    {"compound": "COc1ccc(CCN2C(=O)CC34C=CC(CC3C2=O)O4)cc1OC", "note": "(stereo not drawn)", "values": [
      {"measurement": "GI50", "setting": "SR", "result": "> 100 µM (inactive)"},
      {"measurement": "GI50", "setting": "NCI/ADR-RES", "result": "> 100 µM (inactive)"},
      {"measurement": "GI50", "setting": "MCF7", "result": "> 100 µM (inactive)"},
      {"measurement": "GI50", "setting": "IGROV-1", "result": "> 100 µM (inactive)"},
      {"measurement": "GI50", "setting": "A498", "result": "> 100 µM (inactive)"},
      {"measurement": "GI50", "setting": "OVCAR-4", "result": "> 100 µM (inactive)"},
      {"measurement": "GI50", "setting": "MDA-N", "result": "> 100 µM (inactive)"},
      {"measurement": "GI50", "setting": "COLO 205", "result": "> 100 µM (inactive)"},
      {"measurement": "GI50", "setting": "UACC-62", "result": "> 100 µM (inactive)"},
      {"measurement": "GI50", "setting": "U-251", "result": "> 100 µM (inactive)"},
      {"measurement": "GI50", "setting": "EKVX", "result": "> 100 µM (inactive)"},
      {"measurement": "GI50", "setting": "HCT-15", "result": "> 100", "unit": "µM"},
      {"measurement": "GI50", "setting": "OVCAR-5", "result": "> 100 µM (inactive)"},
      {"measurement": "GI50", "setting": "A549", "result": "> 100 µM (inactive)"},
      {"measurement": "GI50", "setting": "K562", "result": "> 100 µM (inactive)"},
      {"measurement": "GI50", "setting": "PC-3", "result": "> 100 µM (inactive)"}
    ]}
  ]
}
